From patent publication US20260297085A1, “1 H-PYRROLO[2,3-B]PYRIDIN-4-YL]-2-OXOPYRROLIDINE-3-CARBONITRILE DERIVATIVES AS TYROSINE KINASE 2 (TYK2) INHIBITORS FOR THE TREATMENT OF INFLAMMATORY DISEASES” (BIOGEN MA INC., priority 2023, published 2026)
Counter-ions that a name gives are not always drawn.

Legend:
[1] = target: T1, human TYK2 kinase domain (JH1) (Homo sapiens, UniProt P29597); assay: JH1 biochemical assay for TYK2 (ADP-Glo kinase assay, recombinant JH1 catalytic domain, JAK3-974 peptide, 10 μM ATP)
T1 construct: recombinantly generated catalytic kinase (also known as JH1) domain of human JAK1, JAK2, JAK3 and TYK2
T1 sequence (P29597 897-1176 limits assumed): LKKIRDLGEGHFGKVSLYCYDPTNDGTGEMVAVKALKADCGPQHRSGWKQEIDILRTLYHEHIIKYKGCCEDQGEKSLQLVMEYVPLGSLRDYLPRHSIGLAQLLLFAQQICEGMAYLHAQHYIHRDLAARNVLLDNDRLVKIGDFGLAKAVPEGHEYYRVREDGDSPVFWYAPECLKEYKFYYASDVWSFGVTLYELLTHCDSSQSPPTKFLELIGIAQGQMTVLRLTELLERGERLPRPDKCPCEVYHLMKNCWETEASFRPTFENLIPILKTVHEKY
Description: (§1) Compounds of the disclosure were assessed for their ability to inhibit TYK2, JAK1, JAK2, and JAK3 activity. The inhibitory properties of the compounds of the disclosure described herein can be evidenced by testing in any one of the following protocols.
(§2) The kinase activity of recombinantly generated catalytic kinase (also known as JH1) domain of human JAK1, JAK2, JAK3 and TYK2 were evaluated in a plate-based assay using the ADP-Glo™ Kinase Assay platform. Specifically, 4 nM of recombinant JAK1 kinase domain is used to phosphorylate 50 μM of a JAK3-342 (sequence ALVDGYFRLTT) peptide in the presence of 35 μM ATP. Catalytic activities of recombinant JAK2, JAK3 and TYK2 kinase domain (0.2, 0.3 and 2 nM, respectively) are evaluated by the phosphorylation status of the JAK3-974 (50 μM; sequence LPLDKDYYVVR) peptide with the addition of ATP (15, 4 and 10 μM, respectively). The reactions proceed for 100 minutes and the catalytic activity is quantified by first depleting the unused ATP, converting the hydrolyzed ADP into ATP to generate luminescence in a luciferase reaction; which is the basis of the ADP-Glo platform. Compounds are tested at either 10 μM or 1 μM top concentration, 11 points of 3-fold dilution. The data is normalized and the percent activity versus log concentration of compound is fitted with a 4-parameter logistic model to generate a curve and an IC50 value.

[2] = target: T2, human JAK3 kinase domain (JH1) (Homo sapiens, UniProt P52333); assay: JH1 biochemical assay for JAK3 (ADP-Glo kinase assay, recombinant JH1 catalytic domain, JAK3-974 peptide, 4 μM ATP)
T2 construct: recombinantly generated catalytic kinase (also known as JH1) domain of human JAK1, JAK2, JAK3 and TYK2
Description: as §1, §2

[3] = target: T3, human JAK1 kinase domain (JH1) (Homo sapiens, UniProt P23458); assay: JH1 biochemical assay for JAK1 (ADP-Glo kinase assay, recombinant JH1 catalytic domain, JAK3-342 peptide, 35 μM ATP)
T3 construct: recombinantly generated catalytic kinase (also known as JH1) domain of human JAK1, JAK2, JAK3 and TYK2
Description: as §1, §2

[4] = target: T4, human JAK2 kinase domain (JH1) (Homo sapiens, UniProt O60674); assay: JH1 biochemical assay for JAK2 (ADP-Glo kinase assay, recombinant JH1 catalytic domain, JAK3-974 peptide, 15 μM ATP)
T4 construct: recombinantly generated catalytic kinase (also known as JH1) domain of human JAK1, JAK2, JAK3 and TYK2
Description: as §1, §2

T2 sequence (P52333 822-1111 limits assumed): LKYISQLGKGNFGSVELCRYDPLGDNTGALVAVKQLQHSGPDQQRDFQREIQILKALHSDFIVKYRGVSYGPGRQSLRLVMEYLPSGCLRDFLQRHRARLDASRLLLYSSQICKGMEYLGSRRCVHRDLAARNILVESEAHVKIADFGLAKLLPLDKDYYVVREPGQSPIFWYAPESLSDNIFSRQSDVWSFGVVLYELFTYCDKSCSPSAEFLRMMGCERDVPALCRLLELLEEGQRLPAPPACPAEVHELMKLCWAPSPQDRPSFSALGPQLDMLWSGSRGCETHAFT
T3 sequence (P23458 875-1153 limits assumed): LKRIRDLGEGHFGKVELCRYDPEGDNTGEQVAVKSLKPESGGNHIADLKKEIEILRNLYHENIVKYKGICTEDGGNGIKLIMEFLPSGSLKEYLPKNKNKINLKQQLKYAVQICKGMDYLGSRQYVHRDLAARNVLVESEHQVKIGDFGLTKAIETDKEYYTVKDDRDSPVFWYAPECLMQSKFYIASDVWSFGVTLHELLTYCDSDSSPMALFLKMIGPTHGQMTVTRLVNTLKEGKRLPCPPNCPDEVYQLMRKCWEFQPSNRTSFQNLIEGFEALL
T4 sequence (O60674 849-1124 limits assumed): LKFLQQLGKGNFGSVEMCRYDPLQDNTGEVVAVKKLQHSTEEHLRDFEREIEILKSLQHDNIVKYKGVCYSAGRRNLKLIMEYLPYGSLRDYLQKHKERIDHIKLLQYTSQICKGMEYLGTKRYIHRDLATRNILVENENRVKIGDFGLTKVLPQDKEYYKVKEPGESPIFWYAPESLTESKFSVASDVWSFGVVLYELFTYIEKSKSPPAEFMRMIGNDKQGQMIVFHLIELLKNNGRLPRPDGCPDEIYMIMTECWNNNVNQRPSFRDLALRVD

| Compound | IC50 ([1]; JH1 kinase domain, ADP-Glo) | IC50 ([2]; JH1 kinase domain, ADP-Glo) | IC50 ([3]; JH1 kinase domain, ADP-Glo) | IC50 ([4]; JH1 kinase domain, ADP-Glo) | IC50 ([1]; TYK2 JH1, ADP-Glo) | IC50 ([2]; JAK3 JH1, ADP-Glo) | IC50 ([3]; JAK1 JH1, ADP-Glo) | IC50 ([4]; JAK2 JH1, ADP-Glo) |
| --- | --- | --- | --- | --- | --- | --- | --- | --- |
| C[C@@H]1CN(c2ccnn3cc(-c4cnn(C)c4)cc23)C(=O)[C@]1(C#N)C1COC1 [Example 20, (3S,4S)-4-methyl-1-(6-(1-methyl-1H-pyrazol-4-yl)pyrrolo[1,2-b]pyridazin-4-yl)-3-(oxetan-3-yl)-2-oxopyrrolidine-3-carbonitrile] | > 100 nM | > 10000 nM | > 10000 nM | 5000 to 10000 nM | – | – | – | – |
| COC[C@]1(C#N)CCN(c2ccnn3cc(-c4cnn(C)c4)cc23)C1=O (single isomer, unassigned) [Example 41] | > 100 nM | 5000 to 10000 nM | > 10000 nM | 5000 to 10000 nM | – | – | – | – |
| COc1cc(-c2cc3c(N4CC[C@](C#N)(C5CC5)C4=O)ccnn3c2)ccn1 [Example 13, (R)-3-cyclopropyl-1-(6-(2-methoxypyridin-4-yl)pyrrolo[1,2-b]pyridazin-4-yl)-2-oxopyrrolidine-3-carbonitrile] | > 100 nM | > 10000 nM | 5000 to 10000 nM | > 10000 nM | – | – | – | – |
| C[C@@H]1CN(c2ccnn3cc(-c4nc(C#N)cs4)cc23)C(=O)[C@]1(C#N)C1CC1 [Example 114, 2-(4-((3R,4S)-3-cyano-3-cyclopropyl-4-methyl-2-oxopyrrolidin-1-yl)pyrrolo[1,2-b]pyridazin-6-yl)thiazole-4-carbonitrile trifluoroacetate] | 20 to 50 nM | 1000 to 5000 nM | > 10000 nM | > 10000 nM | – | – | – | – |
| COc1cc(-c2cc3c(N4C[C@@H](C)[C@@](C#N)(C5CC5)C4=O)ccnn3c2)c(OC)nn1 [Example 98, (3R,4S)-3-cyclopropyl-1-(6-(3,6-dimethoxypyridazin-4-yl)pyrrolo[1,2-b]pyridazin-4-yl)-4-methyl-2-oxopyrrolidine-3-carbonitrile] | 50 to 100 nM | 5000 to 10000 nM | 1000 to 5000 nM | 1000 to 5000 nM | – | – | – | – |
| COc1cc(-c2cn3nccc3c(N3C[C@@H](C)[C@@](C#N)(C4CC4)C3=O)n2)c(OC)nn1 [Example 253, (3R,4S)-3-cyclopropyl-1-(6-(3,6-dimethoxypyridazin-4-yl)pyrazolo[1,5-a]pyrazin-4-yl)-4-methyl-2-oxopyrrolidine-3-carbonitrile trifluoroacetate] | – | – | – | – | 20 to 50 nM | 5000 to 10000 nM | 1000 to 5000 nM | > 10000 nM |
| C[C@@H]1CN(c2cc(-c3cnn(C)c3)cc3ncnn23)C(=O)[C@]1(C#N)C1CC1 [Example 285, (3R,4S)-3-cyclopropyl-4-methyl-1-(7-(1-methyl-1H-pyrazol-4-yl)-[1,2,4]triazolo[1,5-a]pyridin-5-yl)-2-oxopyrrolidine-3-carbonitrile] | – | – | – | – | > 100 nM | > 10000 nM | > 10000 nM | > 10000 nM |
| Cn1cc(-c2cc3c(N4CC[C@@](C(F)F)(C5CC5)C4=O)ccnn3c2)cn1 [Example 15, (R)-3-cyclopropyl-3-(difluoromethyl)-1-(6-(1-methyl-1H-pyrazol-4-yl)pyrrolo[1,2-b]pyridazin-4-yl)pyrrolidin-2-one] | > 100 nM | 1000 to 5000 nM | 1000 to 5000 nM | 1000 to 5000 nM | – | – | – | – |
| Cn1cc(-c2cc3c(N4CC[C@](C)(C#N)C4=O)ccnn3c2)cn1 (single isomer, unassigned) [Example 39] | > 100 nM | > 10000 nM | > 10000 nM | > 10000 nM | – | – | – | – |

More lines, now with the values ahead:

| IC50 ([1]; JH1 kinase domain, ADP-Glo) | IC50 ([2]; JH1 kinase domain, ADP-Glo) | IC50 ([3]; JH1 kinase domain, ADP-Glo) | IC50 ([4]; JH1 kinase domain, ADP-Glo) | IC50 ([1]; TYK2 JH1, ADP-Glo) | IC50 ([2]; JAK3 JH1, ADP-Glo) | IC50 ([3]; JAK1 JH1, ADP-Glo) | IC50 ([4]; JAK2 JH1, ADP-Glo) | Compound |
| --- | --- | --- | --- | --- | --- | --- | --- | --- |
| > 100 nM | > 10000 nM | > 10000 nM | > 10000 nM | – | – | – | – | C[C@@H]1CN(c2ccnn3cc(-c4cnccc4C(F)(F)F)cc23)C(=O)[C@]1(C#N)C1CC1 [Example 179, (3R,4S)-3-cyclopropyl-4-methyl-2-oxo-1-(6-(4-(trifluoromethyl)pyridin-3-yl)pyrrolo[1,2-b]pyridazin-4-yl)pyrrolidine-3-carbonitrile] |
| – | – | – | – | > 100 nM | 1000 to 5000 nM | 1000 to 5000 nM | > 10000 nM | C[C@@H]1CN(c2nc(-c3ccn(C)n3)cn3nccc23)C(=O)[C@]1(C#N)C1CC1 [Example 229, (3R,4S)-3-cyclopropyl-4-methyl-1-(6-(1-methyl-1H-pyrazol-3-yl)pyrazolo[1,5-a]pyrazin-4-yl)-2-oxopyrrolidine-3-carbonitrile trifluoroacetate] |
| – | – | – | – | > 100 nM | > 10000 nM | > 10000 nM | > 10000 nM | COc1ncc(-c2cn3nccc3c(N3C[C@@H](C)[C@@](C#N)(C4CC4)C3=O)n2)cn1 [Example 240, (3R,4S)-3-cyclopropyl-1-(6-(2-methoxypyrimidin-5-yl)pyrazolo[1,5-a]pyrazin-4-yl)-4-methyl-2-oxopyrrolidine-3-carbonitrile trifluoroacetate] |
| 50 to 100 nM | 1000 to 5000 nM | 1000 to 5000 nM | 1000 to 5000 nM | – | – | – | – | C[C@@H]1CN(c2ccnn3cc(-c4cncc(C(F)(F)F)c4)cc23)C(=O)[C@]1(C#N)C1CC1 [Example 70, (3R,4S)-3-cyclopropyl-4-methyl-2-oxo-1-(6-(5-(trifluoromethyl)pyridin-3-yl)pyrrolo[1,2-b]pyridazin-4-yl)pyrrolidine-3-carbonitrile] |
| – | – | – | – | 20 to 50 nM | 100 to 1000 nM | 100 to 1000 nM | 100 to 1000 nM | C[C@@H]1CN(c2nc(-c3ccnn3C)cn3nccc23)C(=O)[C@]1(C#N)C1CC1 [Example 254, (3R,4S)-3-cyclopropyl-4-methyl-1-(6-(1-methyl-1H-pyrazol-5-yl)pyrazolo[1,5-a]pyrazin-4-yl)-2-oxopyrrolidine-3-carbonitrile trifluoroacetate] |
| 5 to 20 nM | 100 to 1000 nM | 100 to 1000 nM | 100 to 1000 nM | – | – | – | – | C[C@@H]1CN(c2ccnn3cc(-c4ccc(CO)cn4)cc23)C(=O)[C@]1(C#N)C1CC1 [Example 150, (3R,4S)-3-cyclopropyl-1-(6-(5-(hydroxymethyl)pyridin-2-yl)pyrrolo[1,2-b]pyridazin-4-yl)-4-methyl-2-oxopyrrolidine-3-carbonitrile trifluoroacetate] |
| – | – | – | – | > 100 nM | 1000 to 5000 nM | 1000 to 5000 nM | > 10000 nM | C[C@@H]1CN(c2nc(-c3ccc(F)nc3)cn3nccc23)C(=O)[C@]1(C#N)C1CC1 [Example 243, (3R,4S)-3-cyclopropyl-1-(6-(6-fluoropyridin-3-yl)pyrazolo[1,5-a]pyrazin-4-yl)-4-methyl-2-oxopyrrolidine-3-carbonitrile trifluoroacetate] |
| 20 to 50 nM | 1000 to 5000 nM | 100 to 1000 nM | > 10000 nM | – | – | – | – | C[C@@H]1CN(c2ccnn3cc(-c4ncccc4F)cc23)C(=O)[C@]1(C#N)C1CC1 [Example 138, (3R,4S)-3-cyclopropyl-1-(6-(3-fluoropyridin-2-yl)pyrrolo[1,2-b]pyridazin-4-yl)-4-methyl-2-oxopyrrolidine-3-carbonitrile trifluoroacetate] |
| 20 to 50 nM | > 10000 nM | > 10000 nM | > 10000 nM | – | – | – | – | COc1cncc(-c2cc3c(N4C[C@@H](C)[C@@](C#N)(C5CC5)C4=O)ccnn3c2)c1 [Example 82, (3R,4S)-3-cyclopropyl-1-(6-(5-methoxypyridin-3-yl)pyrrolo[1,2-b]pyridazin-4-yl)-4-methyl-2-oxopyrrolidine-3-carbonitrile] |
| 20 to 50 nM | 1000 to 5000 nM | 100 to 1000 nM | 1000 to 5000 nM | – | – | – | – | C[C@@H]1CN(c2ccnn3cc(-c4cncc(OC(F)F)c4)cc23)C(=O)[C@]1(C#N)C1CC1 [Example 177, (3R,4S)-3-cyclopropyl-1-(6-(5-(difluoromethoxy)pyridin-3-yl)pyrrolo[1,2-b]pyridazin-4-yl)-4-methyl-2-oxopyrrolidine-3-carbonitrile] |
| – | – | – | – | 20 to 50 nM | 1000 to 5000 nM | 1000 to 5000 nM | 1000 to 5000 nM | Cc1ccc(-n2nc(N3C[C@@H](C)[C@@](C#N)(C4CC4)C3=O)c3ccncc32)cn1 [Example 282, (3R,4S)-3-cyclopropyl-4-methyl-1-(1-(6-methylpyridin-3-yl)-1H-pyrazolo[3,4-c]pyridin-3-yl)-2-oxopyrrolidine-3-carbonitrile] |
| – | – | – | – | > 100 nM | > 10000 nM | > 10000 nM | > 10000 nM | Cc1cnn(-c2cc3c(N4C[C@@H](C)[C@@](C#N)(C5CC5)C4=O)ccnn3c2)n1 [Example 343, (3R,4S)-3-cyclopropyl-4-methyl-1-(6-(4-methyl-2H-1,2,3-triazol-2-yl)pyrrolo[1,2-b]pyridazin-4-yl)-2-oxopyrrolidine-3-carbonitrile] |
